In one data set the test system is T.b.r. strain STIB900. In words: STIB900 acute mouse model for African trypanosomiasis. Format: in vivo.
The test system of another data set is Poly(d(A-T))2. In words: DNA thermal melting. Particulars: from ΔTm values; for Reduction in DNA affinity: compared within the bis-guanidine series. It counts as binding.
Data set [1] deals with Trypanosoma brucei rhodesiense (T.b.r.) strain STIB900. Format: cell-based. As to conditions: RHODESIENSE|STIB900, read-out: T.b.r. IC50.

Eight molecules from publication PMC3815585 (European journal of medicinal chemistry, 2008) can be followed below.

`CCOC(=O)/N=C(\NC)Nc1ccc(-c2ccc(-c3ccc(N/C(=N/C(=O)OCC)NC)cc3)cc2)cc1` [8c, 4,4″-Bis(N′-ethoxycarbonyl-N″-methyl)-guanidino-[1,1′;4′,1″]terphenyl]: the “Cures (mice that survived 60 days and are parasite-free)” value in the data set with T.b.r. strain STIB900 (25 mg/kg po for 4 days) was “no cures were achieved”. As to `CC(C)NC(=N)Nc1ccc(-c2ccc(-c3ccc(NC(=N)NC(C)C)cc3)cc2)cc1` [9e, 4,4″-Bis(N′-isopropyl)-guanidino-[1,1′;4′,1″]terphenyl], the “Reduction in DNA affinity” value in the data set with Poly(d(A-T))2 is given as “approximately one third”. Regarding `N=C(N)Nc1ccc(-c2ccc(-c3ccc(NC(=N)N)cn3)cc2)nc1` [6b, 1,4-Bis-[5′-guanidinopyridin-2′-yl]phenylene], the “Reduction in DNA affinity” value with Poly(d(A-T))2 is “approximately one third”.

Turning to `CCOC(=O)/N=C(\N)Nc1ccc(-c2ccc(-c3ccc(N/C(N)=N/C(=O)OCC)cc3)cc2)cc1` [8a, 4,4″-Bis(N′-ethoxycarbonyl)-guanidino-[1,1′;4′,1″]terphenyl], in the data set on T.b.r. strain STIB900 (25 mg/kg po for 4 days), the “Cures (mice that survived 60 days and are parasite-free)” value is given as “no cures were achieved”.

By IC50 is commonly meant the concentration that inhibits the measured activity by half. As for `N=C(N)c1ccc(-c2ccc(-c3ccc(C(=N)N)cc3)cc2)cc1` [V], in data set [1], the IC50 is 5 nM. On to `N=C(N)Nc1ccc(-c2ccc(-c3ccc(NC(=N)N)cc3)cc2)cc1` [6a, 4,4″-Bis-guanidino-[1,1′;4′,1″]terphenyl], for which the “Reduction of DNA affinity from that of the corresponding diamidine V” value with Poly(d(A-T))2 is listed as “about 20%”. Further, the “Cures (mice that survived 60 days and are parasite-free)” value with T.b.r. strain STIB900 (20 mg/kg ip for 4 days) is recorded as “none gave cures”. Consider `CNC(=N)Nc1ccc(-c2ccc(-c3ccc(NC(=N)NC)cn3)cc2)nc1` [9d, 1,4-Bis-[5′-(N′-methylguanidino)-pyridin-2′-yl]-phenylene], for which the “Acute toxicity in treated mice” value with T.b.r. strain STIB900 (20 mg/kg ip) was “showed acute toxicity”. Further, the “Cures (mice that survived 60 days and are parasite-free)” value in the data set with T.b.r. strain STIB900 (20 mg/kg ip for 4 days) was “none gave cures”. As to `CNC(=N)Nc1ccc(-c2ccc(-c3ccc(NC(=N)NC)cc3)cc2)cc1` [9c, 4,4″-Bis(N′-methyl)-guanidino-[1,1′;4′,1″]terphenyl], the “Cures (mice that survived 60 days and are parasite-free)” value with T.b.r. strain STIB900 (20 mg/kg ip for 4 days) is listed as “none gave cures”.
